# According to patent publication US10391160B2, “Dimethyl fumarate and vaccination regimens” (Biogen MA Inc., priority 2014, dated 2019):
# Assay: healthy volunteer study of flushing on DMF dosing with aspirin pre-treatment
# Assay type: in vivo, human
# Settings: 325 mg non-enteric coated aspirin 30 minutes prior to DMF dosing; healthy volunteers
# Method: Subjects receiving a vaccine who experience flushing may be administered (e.g., 30 min. prior to DMF dosing) about 325 mg of aspirin to reduce flushing. Some patients who experience flushing with gastrointestinal side effects may reduce the dose to 120 mg DMF BID temporarily. Within a month, the effective dose of 240 mg DMF BID should be resumed.
structure (smiles),measurement,value
CC(=O)Oc1ccccc1C(=O)O [aspirin],occurrence and severity of flushing,reduce the occurrence and severity of flushing
